{"source": "patent US4847387A", "about": "“Antibiotic compounds DC-92B and DC-92D” (Kyowa Hakko Kogyo Co., Ltd., priority 1986, dated 1989)", "key": {"[1]": {"tested_on": "lymphocytic leukemia P388 tumor", "test": "Therapeutic effect against lymphocytic leukemia P388 tumor", "format": "in vivo, male CDF1 mice", "protocol": "Five male CDF1 mice each having a weight of about 22 g were used for each group as test animals, and 1×10^6 cells of lymphocytic leukemia P388 tumor were implanted intraperitoneally into the test animals. 0.2 ml of PBS containing DC-92B or DC-92D was administered once intraperitoneally 24 hours after implantation.\n(§1) For comparison, 0.2 ml of PBS containing mitomycin C was intraperitoneally administered to a group of animals 24 hours after tumor implantation.\n*Continuous administration for five days"}, "[2]": {"tested_on": "Sarcoma 180 ascites tumor", "test": "Therapeutic effect against Sarcoma 180 tumor", "format": "in vivo, male ddY-strain mice", "settings": "ten days after implantation", "protocol": "Six male ddY-strain mice each having a weight of about 20 g were used for each group as test animals, and 5×10^6 cells of Sarcoma 180 ascites tumor were implanted subcutaneously into the animals at the axilla. 0.2 ml of phosphate buffered saline (hereinafter referred to as PBS) containing DC-92B or DC-92D at various concentrations was administered once intraperitoneally 24 hours after implantation. The composition of PBS was 0.8 g/dl NaCl, 0.02 g/dl KCl, […] Na2 HPO4 and 0.02 g/dl KH2 PO4 (pH 7.2).\nas §1"}, "Escherichia coli ATCC 26": {"tested_on": "Escherichia coli ATCC 26", "test": "Minimum inhibitory concentration, agar dilution method", "format": "cell-based", "protocol": "(§2) (A) Minimum Inhibitory Concentration Against Various Bacteria (MIC: μg/ml)\n(§3) The antibacterial activity was evaluated by the agar dilution method using a medium (pH 7) prepared by dissolving 3 g of Bacto-Tryptone (Difco Laboratories), 3 g of meat extract, 1 g of yeast extract, 1 g of glucose and 16 g of agar in 1 liter of water."}, "[3]": {"tested_on": "Salmonella typhosa ATCC 9992", "test": "Minimum inhibitory concentration, agar dilution method", "format": "cell-based", "settings": "Salmonella enterica", "protocol": "as §2, §3"}, "[4]": {"tested_on": "Shigella sonnei ATCC 9290", "test": "Minimum inhibitory concentration, agar dilution method", "format": "cell-based", "protocol": "as §2, §3"}, "[5]": {"tested_on": "Bacillus subtilis No. 10707", "test": "Minimum inhibitory concentration, agar dilution method", "format": "cell-based", "protocol": "as §2, §3"}, "[6]": {"tested_on": "Staphylococcus aureus ATCC 6538P", "test": "Minimum inhibitory concentration, agar dilution method", "format": "cell-based", "settings": "ATCC6538P, pH 7, read-out: Minimum Inhibitory Concentration (MIC)", "protocol": "as §2, §3"}, "[7]": {"tested_on": "Klebsiella pneumoniae ATCC 10031", "test": "Minimum inhibitory concentration, agar dilution method", "format": "cell-based", "protocol": "as §2, §3"}, "in vivo": {"test": "in vivo", "settings": "mouse, ip, mice, intraperitoneal administration, read-out: acute toxicity value (LD50)"}, "Basicity": {"test": "Basicity", "format": "physicochemical"}, "[8]": {"settings": "6.0 mg/kg, i.p. 24 h after implantation"}, "[9]": {"settings": "0.39 mg/kg, once i.p. 24 h after implantation"}, "[10]": {"settings": "0.78 mg/kg, once i.p. 24 h after implantation"}, "[11]": {"settings": "1.56 mg/kg, once i.p. 24 h after implantation"}, "[12]": {"settings": "3.13 mg/kg, once i.p. 24 h after implantation"}, "[13]": {"settings": "1.563 mg/kg, once i.p. 24 h after implantation"}, "[14]": {"settings": "3.125 mg/kg, once i.p. 24 h after implantation"}, "[15]": {"settings": "6.25 mg/kg, once i.p. 24 h after implantation"}, "[16]": {"settings": "methanol, ethanol, acetone, chloroform, ethyl acetate, toluene and dimethylsulfoxide"}, "[17]": {"settings": "0.0125 mg/kg, continuous administration for five days"}, "[18]": {"settings": "0.025 mg/kg, continuous administration for five days"}, "[19]": {"settings": "0.15 mg/kg, once i.p. 24 h after implantation"}, "[20]": {"settings": "0.31 mg/kg, once i.p. 24 h after implantation"}}, "note": "Like-named read-outs stand apart in the source and are kept apart here.", "data": [{"smiles": "CO[C@@]12[C@H](COC(N)=O)C3=C(C(=O)C(C)=C(N)C3=O)N1C[C@@H]1N[C@@H]12", "note": "[Mitomycin C, reference compound]", "values": [{"measurement": "Increased Life Span (T/C)", "setting": "[1]; [8]", "result": 1.63}, {"measurement": "Survival days (mean)", "setting": "[1]; [8]", "result": 17.9, "unit": "days"}, {"measurement": "Average tumor volume", "setting": "[2]; [8]", "result": 743.8, "unit": "mm^3"}, {"measurement": "T/C (average tumor volume)", "setting": "[2]; [8]", "result": 0.35}]}, {"smiles": "Cc1cc2c(c3oc(C4(C)OC4C4OC4(C)C)cc(=O)c13)C(=O)c1c(O)c(C3CC(C)(N(C)C)C(O)C(C)(O)O3)cc(C3=CC(N(C)C)C(O)C(C)O3)c1C2=O", "note": "(stereo not drawn) [DC-92D]", "values": [{"measurement": "Increased Life Span (T/C)", "setting": "[1]; [9]", "result": 1.04}, {"measurement": "Survival days (mean)", "setting": "[1]; [9]", "result": 11.4, "unit": "days"}, {"measurement": "Survival days (mean)", "setting": "[1]; 0.75 mg/kg, 120 h", "result": 17.4, "unit": "days"}, {"measurement": "Increased Life Span (T/C)", "setting": "[1]; 0.75 mg/kg, continuous administration for five days", "result": 1.58}, {"measurement": "Increased Life Span (T/C)", "setting": "[1]; [10]", "result": 1.17}, {"measurement": "Survival days (mean)", "setting": "[1]; [10]", "result": 12.9, "unit": "days"}, {"measurement": "Increased Life Span (T/C)", "setting": "[1]; [11]", "result": 1.15}, {"measurement": "Survival days (mean)", "setting": "[1]; [11]", "result": 12.7, "unit": "days"}, {"measurement": "Increased Life Span (T/C)", "setting": "[1]; [12]", "result": 0.69}, {"measurement": "Survival days (mean)", "setting": "[1]; [12]", "result": 7.6, "unit": "days"}, {"measurement": "Average tumor volume", "setting": "[2]; [13]", "result": 1444.8, "unit": "mm^3"}, {"measurement": "T/C (average tumor volume)", "setting": "[2]; [13]", "result": 0.68}, {"measurement": "Average tumor volume", "setting": "[2]; [14]", "result": 679.9, "unit": "mm^3"}, {"measurement": "T/C (average tumor volume)", "setting": "[2]; [14]", "result": 0.32}, {"measurement": "Average tumor volume", "setting": "[2]; [15]", "result": 764.9, "unit": "mm^3"}, {"measurement": "T/C (average tumor volume)", "setting": "[2]; [15]", "result": 0.36}, {"measurement": "MIC", "setting": "Escherichia coli ATCC 26; ATCC26, agar dilution, pH 7, read-out: Minimum Inhibitory Concentration (MIC)", "result": 100, "unit": "µg/mL"}, {"measurement": "MIC", "setting": "[3]; agar dilution, pH 7, read-out: Minimum Inhibitory Concentration (MIC)", "result": 100, "unit": "µg/mL"}, {"measurement": "MIC", "setting": "[4]; ATCC9290, agar dilution, pH 7, read-out: Minimum Inhibitory Concentration (MIC)", "result": 100, "unit": "µg/mL"}, {"measurement": "MIC", "setting": "[5]; NO.10707, agar dilution, pH 7, read-out: Minimum Inhibitory Concentration (MIC)", "result": 3, "unit": "µg/mL"}, {"measurement": "MIC", "setting": "[6]; agar dilution", "result": 1.5, "unit": "µg/mL"}, {"measurement": "MIC", "setting": "[7]; ATCC10031, agar dilution, pH 7, read-out: Minimum Inhibitory Concentration (MIC)", "result": 25, "unit": "µg/mL"}, {"measurement": "Solubility", "setting": "Solubility; [16]", "result": "Soluble"}, {"measurement": "Solubility", "setting": "Solubility; water and hexane", "result": "sparingly soluble"}, {"measurement": "LD50", "setting": "in vivo", "result": "~5.6", "unit": "mg/kg"}, {"measurement": "Basicity", "setting": "Basicity", "result": "Weakly basic"}]}, {"smiles": "Cc1cc2c(c3oc(C4(C)OC4C4OC4(C)C)cc(=O)c13)C(=O)c1c(O)c(C3CC(C)(N(C)C)C(O)C(C)(O)O3)cc(C3CC(N(C)C)C(O)C(C)O3)c1C2=O", "note": "(stereo not drawn) [DC-92B]", "values": [{"measurement": "Increased Life Span (T/C)", "setting": "[1]; [17]", "result": 1.41}, {"measurement": "Survival days (mean)", "setting": "[1]; [17]", "result": 15.5, "unit": "days"}, {"measurement": "Increased Life Span (T/C)", "setting": "[1]; [18]", "result": 1.41}, {"measurement": "Survival days (mean)", "setting": "[1]; [18]", "result": 15.5, "unit": "days"}, {"measurement": "Increased Life Span (T/C)", "setting": "[1]; [19]", "result": 1.47}, {"measurement": "Survival days (mean)", "setting": "[1]; [19]", "result": 16.2, "unit": "days"}, {"measurement": "Average tumor volume", "setting": "[2]; [20]", "result": 828.6, "unit": "mm^3"}, {"measurement": "T/C (average tumor volume)", "setting": "[2]; [20]", "result": 0.39}, {"measurement": "MIC", "setting": "Escherichia coli ATCC 26; ATCC26, pH 7, read-out: Minimum Inhibitory Concentration (MIC)", "result": 10, "unit": "µg/mL"}, {"measurement": "MIC", "setting": "[3]; pH 7, read-out: Minimum Inhibitory Concentration (MIC)", "result": 40, "unit": "µg/mL"}, {"measurement": "MIC", "setting": "[4]; ATCC9290, pH 7, read-out: Minimum Inhibitory Concentration (MIC)", "result": 10, "unit": "µg/mL"}, {"measurement": "MIC", "setting": "[5]; NO.10707, pH 7, read-out: Minimum Inhibitory Concentration (MIC)", "result": 0.15, "unit": "µg/mL"}, {"measurement": "MIC", "setting": "[6]", "result": 0.04, "unit": "µg/mL"}, {"measurement": "MIC", "setting": "[7]; ATCC10031, pH 7, read-out: Minimum Inhibitory Concentration (MIC)", "result": 2.5, "unit": "µg/mL"}, {"measurement": "Solubility", "setting": "Solubility; [16]", "result": "Soluble"}, {"measurement": "Solubility", "setting": "Solubility; water and hexane", "result": "sparingly soluble"}, {"measurement": "LD50", "setting": "in vivo", "result": "~0.31", "unit": "mg/kg"}, {"measurement": "Basicity", "setting": "Basicity", "result": "Weakly basic"}]}]}
